Source: patent US20260317319A1, “NOVEL ERGOLINES AND METHODS OF TREATING MOOD DISORDERS” (Gilgamesh Pharma Inc., priority 2023, published 2026)
Like-named read-outs stand apart in the source and are kept apart here.

Assays:
5-HT2B receptor = target: T1, 5-HT2B receptor (Homo sapiens, UniProt P41595); assay: cell-based; assay type: cell-based; conditions: Ca2+ flux; for Emax: HEK293, agonist, HEK293, max dose, read-out: 5-HT2B % Act @ Max Dose; for EC50: agonist, HEK293
T1 construct: expressed in transfected cells; host or cells: HEK293, stably transfected
T1 sequence (P41595 whole entry): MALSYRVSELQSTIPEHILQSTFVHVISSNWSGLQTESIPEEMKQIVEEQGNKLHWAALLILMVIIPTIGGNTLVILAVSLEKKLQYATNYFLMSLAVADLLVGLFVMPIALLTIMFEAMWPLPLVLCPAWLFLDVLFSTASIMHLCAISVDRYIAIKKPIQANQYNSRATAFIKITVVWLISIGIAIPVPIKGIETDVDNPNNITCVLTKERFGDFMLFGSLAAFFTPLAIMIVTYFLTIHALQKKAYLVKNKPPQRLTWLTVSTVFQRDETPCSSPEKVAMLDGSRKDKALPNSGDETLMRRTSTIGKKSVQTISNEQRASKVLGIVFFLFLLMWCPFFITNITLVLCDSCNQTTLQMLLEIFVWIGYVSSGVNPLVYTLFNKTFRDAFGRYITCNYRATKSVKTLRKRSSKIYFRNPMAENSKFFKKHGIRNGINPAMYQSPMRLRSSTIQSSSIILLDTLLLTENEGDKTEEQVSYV
Summary of the method: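 FLIPR Tetra fluorescence read-out of calcium flux after compound addition. Receptor-expressing stable lines were used (HEK293 for 2A/2B; CHO with Gα15 for 1A), dye-loaded with Fluo-4 Direct and 2.5 mM final probenecid, 50 min at 37 °C.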

5-HT1A receptor = target: T2, 5-HT1A receptor (Homo sapiens, UniProt P08908); assay: cell-based; conditions: agonist, Ca2+ flux; for Emax: CHO, CHO cells with Gα15, max dose, read-out: 5-HT1A % Act @ Max Dose; for EC50: CHO cells with Gα15
T2 construct: expressed in transfected cells; host or cells: CHO cells, stably transfected
T2 sequence (P08908 1-422): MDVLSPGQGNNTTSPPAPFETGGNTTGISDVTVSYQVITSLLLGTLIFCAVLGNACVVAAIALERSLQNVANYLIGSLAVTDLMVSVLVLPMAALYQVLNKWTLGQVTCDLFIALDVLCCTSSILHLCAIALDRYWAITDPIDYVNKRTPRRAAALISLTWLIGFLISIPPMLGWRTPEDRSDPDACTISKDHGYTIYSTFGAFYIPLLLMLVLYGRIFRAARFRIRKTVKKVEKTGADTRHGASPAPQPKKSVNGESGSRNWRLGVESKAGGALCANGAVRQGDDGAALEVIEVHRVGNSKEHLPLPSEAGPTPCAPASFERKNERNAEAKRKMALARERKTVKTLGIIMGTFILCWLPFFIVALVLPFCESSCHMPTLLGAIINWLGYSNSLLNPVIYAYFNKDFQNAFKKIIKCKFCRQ
Summary of the method: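 Receptor agonism was assessed as intracellular calcium mobilization in stably transfected cells, with CHO cells additionally carrying Gα15 for the 5-HT1A readout. Calcium was monitored with Fluo-4 Direct dye.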

5-HT1B receptor = target: T3, 5-HT1B receptor (Homo sapiens, UniProt P28222); assay: cAMP accumulation functional assay at 5-HT1B; assay type: cell-based; conditions: agonist, cAMP accumulation; for Emax: max dose, read-out: 5-HT1B % Act @ Max Dose
T3 construct: expressed in transfected cells
T3 sequence (P28222 whole entry): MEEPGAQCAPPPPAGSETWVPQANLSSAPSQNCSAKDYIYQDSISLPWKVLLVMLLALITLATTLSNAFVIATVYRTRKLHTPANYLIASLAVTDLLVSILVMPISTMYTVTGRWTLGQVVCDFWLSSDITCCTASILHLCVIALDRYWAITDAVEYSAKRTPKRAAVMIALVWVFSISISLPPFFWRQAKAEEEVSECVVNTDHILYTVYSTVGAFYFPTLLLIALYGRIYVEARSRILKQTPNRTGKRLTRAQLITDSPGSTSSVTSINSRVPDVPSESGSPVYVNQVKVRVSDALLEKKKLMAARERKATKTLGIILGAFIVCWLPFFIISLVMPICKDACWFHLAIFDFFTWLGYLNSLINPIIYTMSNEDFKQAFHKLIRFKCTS
Method: Functional Assay at 5-HT1B. Agonist activity at 5-HT1B was determined using a CAMP accumulation protocol at WuXi AppTec (Hong Kong) Limited according to their standard protocols. Briefly, stably transfected cells were plated in an OptiPlate-384 well plate, incubated at RT for 60 mins, and cAMP standard solution (800 nM, 10 μL) was added to the blank well. Then, 10 μL detection reagent was added to each well, the plate incubated for 60 mins at RT, and the plate read using En Vision.

in vitro [1] = assay type: in vitro ADME, human; conditions: human, microsomes, HLM 0.50 mg/mL, NADPH 1 mM, 1 μM compound, pH 7.4, 37° C., 60 min; for microsomal CLint: read-out: Intrinsic clearance (Clint); for half-life: read-out: half-life (t1/2)
in vitro [2] = assay type: in vitro ADME, mouse; conditions: mouse, microsomes, MLM (male CD-1) 0.50 mg/mL, NADPH 1 mM, 1 μM compound, pH 7.4, 37° C., 60 min; for microsomal CLint: read-out: Intrinsic clearance (Clint); for half-life: read-out: half-life (t1/2)
Description: MLM Stability Pooled MLM from male CD-1 mice (BIOIVT M00501) were used.

in vitro [3] = assay type: in vitro ADME, rat; conditions: rat, microsomes, RLM (male Sprague-Dawley) 0.50 mg/mL, NADPH 1 mM, 1 μM compound, pH 7.4, 37° C., 60 min; for microsomal CLint: read-out: Intrinsic clearance (Clint); for half-life: read-out: half-life (t1/2)
Description: RLM Stability Pooled RLM from male Sprague-Dawley rats (Xenotech R1000) were used.

5-HT2A receptor [4] = target: T4, 5-HT2A receptor (Homo sapiens, UniProt P28223); assay: biochemical; assay type: binding; design: expressed in transfected cells; host or cells: HEK293, stably transfected; conditions: [3H]ketanserin 1 nM; HEK293 stable cell line; 1 h, 25 °C
T4 sequence (P28223 whole entry): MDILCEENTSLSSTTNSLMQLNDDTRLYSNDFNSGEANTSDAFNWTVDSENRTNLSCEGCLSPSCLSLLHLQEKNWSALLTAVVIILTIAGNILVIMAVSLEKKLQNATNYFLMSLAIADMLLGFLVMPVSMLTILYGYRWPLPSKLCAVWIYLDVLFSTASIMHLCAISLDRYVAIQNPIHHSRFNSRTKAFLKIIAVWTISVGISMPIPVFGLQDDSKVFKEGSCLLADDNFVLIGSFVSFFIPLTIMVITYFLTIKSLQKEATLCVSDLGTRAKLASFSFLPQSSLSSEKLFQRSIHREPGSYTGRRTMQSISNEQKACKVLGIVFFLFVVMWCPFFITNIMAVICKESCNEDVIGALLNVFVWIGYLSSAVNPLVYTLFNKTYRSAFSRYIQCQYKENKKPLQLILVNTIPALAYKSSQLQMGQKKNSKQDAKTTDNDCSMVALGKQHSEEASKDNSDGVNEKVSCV
Summary of the method: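 Affinity was measured in radioligand binding experiments using [^3H]ketanserin as the labelled ligand, following methods adapted from published procedures.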

5-HT2A receptor [5] = target: T4, 5-HT2A receptor; assay: cell-based; assay type: cell-based; design: expressed in transfected cells; host or cells: HEK293, stably transfected; conditions: Ca2+ flux; for Emax: HEK293, agonist, HEK293, max dose, read-out: 5-HT2A % Act @ Max Dose; for EC50: agonist, HEK293
Summary of the method: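 Cells plated and incubated overnight at 37 °C, 5% CO2; Fluo-4 Direct dye with probenecid (final 2.5 mM) added, 50 min at 37 °C; test compounds transferred and Ca2+ signal recorded. HEK293 hosts for 5-HT2A/2B, CHO + Gα15 for 5-HT1A.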

5-HT2A receptor [6] = target: T4, 5-HT2A receptor; assay: cell-based; assay type: cell-based; conditions: agonist, beta-arrestin recruitment; for EC50: PathHunter, read-out: 5-HT2A Arrestin EC50; for Emax: max dose, read-out: 5-HT2A Arrestin % Act @ Max Dose
Method: Arrestin Functional Assay at 5-HT2A. Recruitment of beta-arrestin was determined using a PathHunter assay at Eurofins DiscoverX (Fremont, CA) according to their standard protocols. PathHunter GPCR beta-arrestin assays take advantage of DiscoverX's proprietary Enzyme Fragment Complementation technology. The GPCR is fused in frame with a small enzyme donor fragment ProLink™ (PK) and co-expressed in cells stably expressing a fusion protein of beta-arrestin and the larger, N-terminal deletion mutant of beta-galactosidase. Activation of the GPCR (5-HT2A receptor in this case) stimulates binding of beta-arrestin to the PK-tagged GPCR and forces complementation of the two enzyme fragments, resulting in the formation of an active beta-galactosidase enzyme. This interaction leads to an increase in enzyme activity that can be measured using chemiluminescent PathHunter Detection Reagents. Briefly, PathHunter cells expressing 5-HT2A receptors were seeded in a volume of 20 μL into 384-well plates and incubated at 37° C. for the appropriate time prior to testing. […] Plates were then imaged on a microplate reader and the agonist activity was calculated using the following formula: % Activity=100%×(mean RLU of test sample-mean RLU of vehicle control)/(mean MAX control ligand-mean RLU of vehicle control), where RLU=relative light units.

5-HT2C receptor = target: T5, 5-HT2C receptor (Homo sapiens, UniProt P28335); assay: cell-based; conditions: read-out: 5-HT2C % Act @ Max Dose
T5 sequence (P28335 33-458): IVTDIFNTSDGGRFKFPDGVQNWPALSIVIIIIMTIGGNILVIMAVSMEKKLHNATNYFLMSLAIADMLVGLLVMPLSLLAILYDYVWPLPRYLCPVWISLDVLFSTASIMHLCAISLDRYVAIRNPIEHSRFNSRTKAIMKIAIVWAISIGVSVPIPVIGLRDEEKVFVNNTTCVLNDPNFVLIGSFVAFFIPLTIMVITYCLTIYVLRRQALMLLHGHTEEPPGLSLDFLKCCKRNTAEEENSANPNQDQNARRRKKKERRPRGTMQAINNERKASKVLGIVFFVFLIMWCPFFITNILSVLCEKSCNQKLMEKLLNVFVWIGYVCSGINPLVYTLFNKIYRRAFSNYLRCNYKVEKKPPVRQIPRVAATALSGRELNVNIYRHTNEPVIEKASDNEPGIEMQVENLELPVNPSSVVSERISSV

## CCN(CC)C(=O)[C@@H]1C=C2c3cccc4[nH]cc(c34)C[C@H]2N(Cc2cccnc2)C1 [Compound 55, (6aR,9R)—N,N-diethyl-7-(pyridin-3-ylmethyl)-4,6,6a,7,8,9-hexahydroindolo[4,3-fg]quinoline-9-carboxamide]
5-HT2B receptor
  Emax: 25.7%
  EC50: > 100000 nM
5-HT1A receptor
  Emax: 108%
  EC50: 4090 nM
5-HT1B receptor
  EC50: 575 nM
  Emax: 82.5%
In vitro [1]
  microsomal CLint: 56 µL/min/mg
  half-life: 24.8 min
In vitro [2]
  microsomal CLint: 543 µL/min/mg
  half-life: 2.6 min
In vitro [3]
  microsomal CLint: 103 µL/min/mg
  half-life: 13.4 min
5-HT2A receptor [4]
  Ki: 39.7 nM
5-HT2A receptor [5]
  Emax: 87.8%
  EC50: 158 nM

## CCNC(=O)[C@@H]1C=C2c3cccc4[nH]cc(c34)C[C@H]2N(Cc2cccc(O)c2)C1 [Compound 64, (6aR,9R)—N-ethyl-7-(3-hydroxybenzyl)-4,6,6a,7,8,9-hexahydroindolo[4,3-fg]quinoline-9-carboxamide]
5-HT2B receptor
  Emax: 1.49%
  EC50: > 10000 nM
5-HT1A receptor
  Emax: 87%
  EC50: 424 nM
5-HT1B receptor
  EC50: 4520 nM
  Emax: 68.8%
5-HT2A receptor [6]
  EC50: 23.2 nM
  Emax: 52%
In vitro [1]
  microsomal CLint: 100 µL/min/mg
  half-life: 13.8 min
In vitro [2]
  microsomal CLint: 312 µL/min/mg
  half-life: 4.4 min
In vitro [3]
  microsomal CLint: 222 µL/min/mg
  half-life: 6.2 min
5-HT2A receptor [4]
  Ki: 12 nM
5-HT2A receptor [5]
  Emax: 75.8%
  EC50: 53.3 nM

## CC[C@@H](C)NC(=O)[C@H]1C=C2c3cccc4[nH]cc(c34)C[C@H]2N(C)C1 [Int8a]
5-HT2B receptor
  Emax: 6.87%
5-HT2C receptor
  Emax: 93.7%
5-HT1A receptor
  Emax: 104%
5-HT2A receptor [6]
  Emax: 35.5%
5-HT2A receptor [5]
  Emax: 72.6%

## CCC[C@@H](C)NC(=O)[C@H]1C=C2c3cccc4[nH]cc(c34)C[C@H]2N(C)C1 [Int17a]
5-HT2B receptor
  Emax: 5.63%
5-HT2C receptor
  Emax: 112%
5-HT1A receptor
  Emax: 88.5%
5-HT2A receptor [6]
  Emax: 43.7%
5-HT2A receptor [5]
  Emax: 63.3%

## CCN(CC)C(=O)[C@@H]1C=C2c3cccc4[nH]cc(c34)C[C@H]2N(Cc2ccncc2)C1 [Compound 51, (6aR,9R)—N,N-diethyl-7-(pyridin-4-ylmethyl)-4,6,6a,7,8,9-hexahydroindolo[4,3-fg]quinoline-9-carboxamide]
5-HT2B receptor
  Emax: 19.3%
  EC50: > 100000 nM
5-HT1A receptor
  Emax: 100%
  EC50: 1460 nM
5-HT1B receptor
  EC50: 190 nM
  Emax: 89.1%
In vitro [1]
  microsomal CLint: 34.3 µL/min/mg
  half-life: 40.4 min
In vitro [2]
  microsomal CLint: 480 µL/min/mg
  half-life: 2.9 min
In vitro [3]
  microsomal CLint: 73.6 µL/min/mg
  half-life: 18.8 min
5-HT2A receptor [4]
  Ki: 15.6 nM
5-HT2A receptor [5]
  Emax: 102%
  EC50: 97.8 nM

## CCC(CC)NC(=O)[C@H]1C=C2c3cccc4[nH]cc(c34)C[C@H]2N(C)C1 [Int14a]
5-HT2B receptor
  Emax: 1.86%
5-HT2C receptor
  Emax: 119%
5-HT1A receptor
  Emax: 70.3%
5-HT2A receptor [6]
  Emax: 44.3%
5-HT2A receptor [5]
  Emax: 33%

## CCNC(=O)[C@@H]1C=C2c3cccc4[nH]cc(c34)C[C@H]2N(Cc2cccc(OC)c2)C1 [Compound 63, (6aR,9R)—N-ethyl-7-(3-methoxybenzyl)-4,6,6a,7,8,9-hexahydroindolo[4,3-fg]quinoline-9-carboxamide]
5-HT2B receptor
  Emax: -0.31%
  EC50: > 10000 nM
5-HT1A receptor
  Emax: 88.4%
  EC50: 6110 nM
5-HT1B receptor
  EC50: > 10000 nM
  Emax: 45.7%
5-HT2A receptor [6]
  EC50: 12.6 nM
  Emax: 64%
In vitro [1]
  microsomal CLint: 442 µL/min/mg
  half-life: 3.1 min
In vitro [2]
  microsomal CLint: 1610 µL/min/mg
  half-life: 0.9 min
In vitro [3]
  microsomal CLint: 645 µL/min/mg
  half-life: 2 min
5-HT2A receptor [4]
  Ki: 11.3 nM
5-HT2A receptor [5]
  Emax: 91%
  EC50: 96.9 nM

## CCN(CC)C(=O)[C@@H]1C=C2c3cccc4[nH]cc(c34)C[C@H]2N(Cc2ccc(F)c(OC)c2)C1 [Compound 60, (6aR,9R)—N,N-diethyl-7-(4-fluoro-3-methoxybenzyl)-4,6,6a,7,8,9-hexahydroindolo[4,3-fg]quinoline-9-carboxamide]
5-HT2B receptor
  Emax: 23.8%
  EC50: > 100000 nM
5-HT1A receptor
  Emax: 53.1%
  EC50: 36400 nM
5-HT1B receptor
  EC50: > 10000 nM
  Emax: 31%
In vitro [1]
  microsomal CLint: 69.1 µL/min/mg
  half-life: 20.1 min
In vitro [2]
  microsomal CLint: 295 µL/min/mg
  half-life: 4.7 min
In vitro [3]
  microsomal CLint: 152 µL/min/mg
  half-life: 9.1 min
5-HT2A receptor [4]
  Ki: 6.18 nM
5-HT2A receptor [5]
  Emax: 102%
  EC50: 1380 nM
